Measurements from publication PMC3879121 (Journal of natural products, 2013).

Key:
[1] = tested on: human dermal fibroblast (hDF) cells; assay: Cell cytotoxicity MTS-PMS assay, hDF; format: cell-based; conditions: 72 h, read-out: hDF GI50
HDAC2 = HDAC2 (Homo sapiens, UniProt Q92769); assay: HDAC enzyme assay; conditions: for inhibition of HDAC2: at 1 µM, initial results (data not shown)
HDAC4 = HDAC4 (Homo sapiens, UniProt P56524); assay: HDAC enzyme assay; conditions: at 1 µM, initial results (data not shown)
Sequence of HDAC4 (P56524 whole entry): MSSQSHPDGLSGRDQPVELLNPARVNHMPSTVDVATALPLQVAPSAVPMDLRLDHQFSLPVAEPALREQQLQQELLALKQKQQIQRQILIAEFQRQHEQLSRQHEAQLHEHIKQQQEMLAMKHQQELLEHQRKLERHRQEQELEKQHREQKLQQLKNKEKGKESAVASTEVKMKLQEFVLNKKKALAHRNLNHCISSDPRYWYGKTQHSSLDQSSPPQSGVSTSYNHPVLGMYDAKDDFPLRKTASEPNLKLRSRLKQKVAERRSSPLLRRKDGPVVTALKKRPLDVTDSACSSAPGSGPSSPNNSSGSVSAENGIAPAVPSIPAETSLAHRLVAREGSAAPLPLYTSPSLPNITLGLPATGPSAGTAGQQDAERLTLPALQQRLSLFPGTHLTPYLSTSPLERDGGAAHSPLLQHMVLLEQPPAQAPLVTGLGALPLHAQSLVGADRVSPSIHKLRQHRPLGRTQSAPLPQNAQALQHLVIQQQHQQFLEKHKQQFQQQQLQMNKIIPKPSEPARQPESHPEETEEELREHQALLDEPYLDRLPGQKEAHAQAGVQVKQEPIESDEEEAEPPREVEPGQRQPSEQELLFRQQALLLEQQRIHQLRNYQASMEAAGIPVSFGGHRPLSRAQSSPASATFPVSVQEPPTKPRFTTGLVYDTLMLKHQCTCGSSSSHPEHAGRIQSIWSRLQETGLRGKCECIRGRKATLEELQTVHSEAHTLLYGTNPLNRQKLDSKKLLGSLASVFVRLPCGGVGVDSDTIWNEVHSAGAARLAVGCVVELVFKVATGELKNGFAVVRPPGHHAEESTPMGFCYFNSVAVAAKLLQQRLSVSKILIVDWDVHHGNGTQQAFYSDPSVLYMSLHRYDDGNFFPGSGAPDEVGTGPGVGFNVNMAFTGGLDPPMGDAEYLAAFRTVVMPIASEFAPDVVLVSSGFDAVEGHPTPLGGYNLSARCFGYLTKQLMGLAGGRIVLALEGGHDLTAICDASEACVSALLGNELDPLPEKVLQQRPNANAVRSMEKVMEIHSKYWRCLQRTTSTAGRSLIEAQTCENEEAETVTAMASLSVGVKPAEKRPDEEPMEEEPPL

Sequence of HDAC2 (Q92769 whole entry): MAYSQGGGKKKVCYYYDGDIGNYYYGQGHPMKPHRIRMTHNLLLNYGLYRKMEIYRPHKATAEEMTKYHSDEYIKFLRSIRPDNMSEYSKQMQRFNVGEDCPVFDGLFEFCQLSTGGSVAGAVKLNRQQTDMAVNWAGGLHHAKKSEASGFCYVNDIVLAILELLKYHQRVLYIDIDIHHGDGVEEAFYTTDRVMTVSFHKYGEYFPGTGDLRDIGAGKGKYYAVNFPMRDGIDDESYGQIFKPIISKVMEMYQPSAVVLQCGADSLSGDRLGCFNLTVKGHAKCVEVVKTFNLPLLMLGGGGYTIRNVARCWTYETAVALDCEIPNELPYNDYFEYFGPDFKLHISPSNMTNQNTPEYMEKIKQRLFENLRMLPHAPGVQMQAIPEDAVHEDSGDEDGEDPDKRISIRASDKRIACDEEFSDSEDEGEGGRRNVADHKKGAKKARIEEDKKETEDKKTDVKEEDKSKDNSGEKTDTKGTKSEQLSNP

SMILES | GI50 [1] | selectivity for Class I HDACs (HDAC2; HDAC2 versus Class II HDACs) | inhibition of HDAC2 (HDAC2) | inhibition of HDAC4 (HDAC4)
CCOC(=O)NCCCC(=O)NCCc1ccccc1 [compound 1, Ethyl 3-(phenethylcarbamoyl)propylcarbamate] | > 100 µM | over 3,500 fold | selectively inhibited HDAC2 | relatively little inhibition of HDAC4
O=C(CCCCCCC(=O)Nc1ccccc1)NO [compound 2, suberoylanilide hydroxamic acid, reference compound] |  |  |  | completely inhibited
O=C(CCCC(=O)NCCc1ccccc1)NO [compound 3, N^1-Hydroxy-N^5-phenethylglutaramide] | > 100 µM |  | selectively inhibited HDAC2 | relatively little inhibition of HDAC4
